Experiments:
BA/F3-FLT3-ITD + D835Y = target: T1, BA/F3-FLT3-ITD + D835Y (Homo sapiens, UniProt P36888, D835Y, cells depend on it, form not given); assay: Engineered BA/F3 cell growth assay, FLT3 ITD/D835Y; format: cell-based, murine; details: 3 d growth
T1 sequence (P36888 with tags, fused parts or gaps INS600HVDFREYEYD/D835Y): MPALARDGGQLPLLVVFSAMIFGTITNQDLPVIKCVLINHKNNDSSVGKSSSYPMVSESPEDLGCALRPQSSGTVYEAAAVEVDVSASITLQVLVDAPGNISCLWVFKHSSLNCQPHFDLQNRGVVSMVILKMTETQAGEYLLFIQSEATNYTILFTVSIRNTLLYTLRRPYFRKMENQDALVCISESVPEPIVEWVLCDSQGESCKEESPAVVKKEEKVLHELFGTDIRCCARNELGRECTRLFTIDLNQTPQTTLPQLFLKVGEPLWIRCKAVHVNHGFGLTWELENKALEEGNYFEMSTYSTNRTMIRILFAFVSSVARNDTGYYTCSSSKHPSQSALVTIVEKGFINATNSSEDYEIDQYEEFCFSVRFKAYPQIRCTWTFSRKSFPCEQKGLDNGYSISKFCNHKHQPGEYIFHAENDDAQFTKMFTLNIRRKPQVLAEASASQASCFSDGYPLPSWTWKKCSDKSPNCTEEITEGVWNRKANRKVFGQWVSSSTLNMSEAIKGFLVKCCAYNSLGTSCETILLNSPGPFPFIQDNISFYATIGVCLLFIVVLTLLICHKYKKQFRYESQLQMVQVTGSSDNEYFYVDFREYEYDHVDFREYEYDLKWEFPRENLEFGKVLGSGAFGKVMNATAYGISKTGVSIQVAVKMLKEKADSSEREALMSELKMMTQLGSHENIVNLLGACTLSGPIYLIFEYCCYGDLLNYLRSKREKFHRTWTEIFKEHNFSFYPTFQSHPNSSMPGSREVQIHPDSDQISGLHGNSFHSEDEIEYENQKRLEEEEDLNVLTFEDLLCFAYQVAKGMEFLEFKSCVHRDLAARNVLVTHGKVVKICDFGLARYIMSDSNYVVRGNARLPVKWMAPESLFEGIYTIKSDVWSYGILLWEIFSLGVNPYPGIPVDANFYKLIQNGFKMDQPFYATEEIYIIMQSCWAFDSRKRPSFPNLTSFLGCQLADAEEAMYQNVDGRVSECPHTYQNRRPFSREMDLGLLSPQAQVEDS
Summary of the method: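 Murine Ba/F3 cells transfected with full-length FLT3 ITD/D835Y, grown without IL-3 so growth depends on FLT3. Seeded at 1×10^4 cells/well, 8-point 1:3 series to 1 μM top (0.2% DMSO), 3 days at 37 °C. CellTiter-Glo luminescence (ATP) versus concentration gave IC50.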

[1] = tested on: MOLM-14 D835Y (endogenous FLT3 ITD and transfected FLT3 D835Y); assay: MOLM-14 D835Y cell proliferation assay (CellTiter-Glo); format: cell-based; details: Homo sapiens, MOLM-14, 72 h; 3 d growth, GMean
Summary of the method: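 Three-day proliferation at 37 °C/5% CO2 of FLT3-ITD MOLM-14 lines with D835Y or F691L mutation, seeded 1×10^4 per well. Compounds at eight points, top 1 μM final, 0.2% DMSO. ATP luminescence (CellTiter-Glo) gives IC50.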

Row | SMILES | GI50 (BA/F3-FLT3-ITD + D835Y) | IC50 [1]
1 | Cn1cnc(Nc2ncc(-c3ccc(CC(=O)Nc4cncc(C(F)(F)F)c4)c(F)c3)cn2)c1 [Compound P-0052, 2-[2-fluoro-4-[2-[(1-methylimidazol-4-yl)amino]pyrimidin-5-yl]phenyl]-N-[5-(trifluoromethyl)-3-pyridyl]acetamide] | 0.0001 to 10 µM | 0.0001 to 10 µM
2 | CC(=O)c1c[nH]c2ncc(-c3ccc(CC(=O)Nc4ccnc(C(F)(F)F)c4)c(F)c3)cc12 [Compound P-0031, 2-(4-(3-acetyl-1H-pyrrolo[2,3-b]pyridin-5-yl)-2-fluorophenyl)-N-(2-(trifluoromethyl)pyridin-4-yl)acetamide] | 0.0001 to 10 µM | 0.0001 to 10 µM
3 | CCC(=O)c1c[nH]c2ncc(-c3ccc(CC(=O)Nc4cncc(C(F)(F)F)c4)c(F)c3)cc12 [Compound P-0068, 2-[2-fluoro-4-(3-propanoyl-1H-pyrrolo[2,3-b]pyridin-5-yl)phenyl]-N-[5-(trifluoromethyl)-3-pyridyl]acetamide] | 0.0001 to 10 µM | 0.0001 to 10 µM
4 | CC(=O)c1c[nH]c2ncc(-c3ccc(CC(=O)Nc4cnc(C)c(C(F)(F)F)c4)c(F)c3)cc12 [Compound P-0063, 2-[4-(3-acetyl-1H-pyrrolo[2,3-b]pyridin-5-yl)-2-fluoro-phenyl]-N-[6-methyl-5-(trifluoromethyl)-3-pyridyl]acetamide] | 0.0001 to 10 µM | 0.0001 to 10 µM
5 | O=C(Cc1cc(F)c(-c2cnc(Nc3cnn4ccccc34)nc2)cc1F)Nc1cncc(C(F)(F)F)c1 [Compound P-0075, 2-[2,5-difluoro-4-[2-(pyrazolo[1,5-a]pyridin-3-ylamino)pyrimidin-5-yl]phenyl]-N-[5-(trifluoromethyl)-3-pyridyl]acetamide] | 0.0001 to 10 µM | 0.0001 to 10 µM
6 | Cc1ncc(NC(=O)Cc2ccc(-c3cnc(Nc4cn[nH]c4)nc3)cc2F)cc1C(F)(F)F [Compound P-0027, 2-[2-fluoro-4-[2-(1H-pyrazol-4-ylamino)pyrimidin-5-yl]phenyl]-N-[6-methyl-5-(trifluoromethyl)-3-pyridyl]acetamide] | 0.0001 to 10 µM | 0.0001 to 10 µM
7 | COc1ncc(NC(=O)Cc2ccc(-c3cnc(Nc4cnn(C)c4)nc3)cc2F)cc1C(F)(F)F [Compound P-0089, 2-[2-fluoro-4-[2-[(1-methylpyrazol-4-yl)amino]pyrimidin-5-yl]phenyl]-N-[6-methoxy-5-(trifluoromethyl)-3-pyridyl]acetamide] | 0.0001 to 10 µM | 0.0001 to 10 µM
8 | O=C(Cc1ccc(-c2cnc3c(c2)C2(CC2)C(=O)N3)cc1F)Nc1cncc(C(F)(F)F)c1 [Compound P-0064, 2-(2-fluoro-4-(2′-oxo-1′,2′-dihydrospiro[cyclopropane-1,3′-pyrrolo[2,3-b]pyridin]-5′-yl)phenyl)-N-(5-(trifluoromethyl)pyridin-3-yl)acetamide] | 0.0001 to 10 µM | 0.0001 to 10 µM
9 | COc1ncc(NC(=O)Cc2ccc(-c3cnc4[nH]c(Cl)cc4c3)cc2F)cc1C(F)(F)F [Compound P-0038, 2-[4-(2-chloro-1H-pyrrolo[2,3-b]pyridin-5-yl)-2-fluoro-phenyl]-N-[6-methoxy-5-(trifluoromethyl)-3-pyridyl]acetamide] | 0.0001 to 10 µM | 0.0001 to 10 µM
10 | O=C(Cc1ccc(-c2cnc3[nH]cc(F)c3c2)cc1F)Nc1cc(Cl)c(C2CC2)cn1 [Compound P-0044, N-(4-chloro-5-cyclopropyl-2-pyridyl)-2-[2-fluoro-4-(3-fluoro-1H-pyrrolo[2,3-b]pyridin-5-yl)phenyl]acetamide] | 0.0001 to 10 µM | 0.0001 to 10 µM
11 | O=C(Cc1ccc(-c2cnc(Nc3cnn4ccccc34)nc2)cc1F)Nc1ccnc(C(F)(F)F)c1 [Compound P-0033, 2-[2-fluoro-4-[2-(pyrazolo[1,5-a]pyridin-3-ylamino)pyrimidin-5-yl]phenyl]-N-[2-(trifluoromethyl)-4-pyridyl]acetamide] | 0.0001 to 10 µM | 0.0001 to 10 µM
12 | Cc1ncc(NC(=O)Cc2ccc(-c3cnc4c(c3)C3(CC3)C(=O)N4)cc2F)cc1C(F)(F)F [Compound P-0057, 2-[2-fluoro-4-(2-oxospiro[1H-pyrrolo[2,3-b]pyridine-3,1′-cyclopropane]-5-yl)phenyl]-N-[6-methyl-5-(trifluoromethyl)-3-pyridyl]acetamide] | 0.0001 to 10 µM | 0.0001 to 10 µM
13 | Cn1cc(Nc2ncc(-c3ccc(CC(=O)NCc4ccc(C(F)(F)F)nc4)c(F)c3)cn2)cn1 [Compound P-0087, 2-[2-fluoro-4-[2-[(1-methylpyrazol-4-yl)amino]pyrimidin-5-yl]phenyl]-N-[[6-(trifluoromethyl)-3-pyridyl]methyl]acetamide] | 0.0001 to 10 µM | 0.0001 to 10 µM
14 | O=C(Cc1ccc(-c2cnc(Nc3cnn(C(F)F)c3)nc2)c(F)c1)Nc1cc(C(F)(F)F)ccn1 [Compound P-0024, 2-[4-[2-[[1-(difluoromethyl)pyrazol-4-yl]amino]pyrimidin-5-yl]-3-fluoro-phenyl]-N-[4-(trifluoromethyl)-2-pyridyl]acetamide] | 0.0001 to 10 µM | 0.0001 to 10 µM
15 | Cc1ncc(NC(=O)Cc2ccc(-c3cnc4[nH]nc(C5CC5)c4c3)cc2F)cc1C(F)(F)F [Compound P-0066, 2-(4-(3-cyclopropyl-1H-pyrazolo[3,4-b]pyridin-5-yl)-2-fluorophenyl)-N-(6-methyl-5-(trifluoromethyl)pyridin-3-yl)acetamide] | 0.0001 to 10 µM | 0.0001 to 10 µM
16 | Cn1cc(Nc2ncc(-c3ccc(CC(=O)NCc4ccc(C(F)(F)F)cn4)cc3)cn2)cn1 [Compound P-0162, 2-[4-[2-[(1-methylpyrazol-4-yl)amino]pyrimidin-5-yl]phenyl]-N-[[5-(trifluoromethyl)-2-pyridyl]methyl]acetamide] | 0.0001 to 10 µM | 
17 | COc1ncc(NC(=O)Cc2ccc(-c3cnc4[nH]cc(F)c4c3)c(F)c2)cc1C(F)(F)F [Compound P-0048, 2-[3-fluoro-4-(3-fluoro-1H-pyrrolo[2,3-b]pyridin-5-yl)phenyl]-N-[6-methoxy-5-(trifluoromethyl)-3-pyridyl]acetamide] | 0.0001 to 10 µM | 
18 | O=C(Cc1ccc(-c2cnc3[nH]c(Cl)cc3c2)cc1F)Nc1ccnc(C(F)(F)F)c1 [Compound P-0030, 2-[4-(2-chloro-1H-pyrrolo[2,3-b]pyridin-5-yl)-2-fluoro-phenyl]-N-[2-(trifluoromethyl)-4-pyridyl]acetamide] | 0.0001 to 10 µM | 
19 | COc1ncc(NC(=O)Cc2cc(F)c(-c3cnc4[nH]cc(F)c4c3)cc2F)cc1C(F)(F)F [Compound P-0051, 2-[2,5-difluoro-4-(3-fluoro-1H-pyrrolo[2,3-b]pyridin-5-yl)phenyl]-N-[6-methoxy-5-(trifluoromethyl)-3-pyridyl]acetamide] | 0.0001 to 10 µM | 
20 | Cc1cc(CC(=O)Nc2cccc(C(F)(F)F)c2)ccc1-c1cnc2[nH]c(-c3ccccc3)cc2c1 [Compound P-0002, 2-[3-methyl-4-(2-phenyl-1H-pyrrolo[2,3-b]pyridin-5-yl)phenyl]-N-[3-(trifluoromethyl)phenyl]acetamide] | 0.0001 to 10 µM | 
21 | Cn1cnc(Nc2ncc(-c3ccc(CC(=O)Nc4cc(C(C)(F)F)ccn4)cc3F)cn2)c1 [Compound P-0171, N-[4-(1,1-difluoroethyl)-2-pyridyl]-2-[3-fluoro-4-[2-[(1-methylimidazol-4-yl)amino]pyrimidin-5-yl]phenyl]acetamide] | 0.0001 to 10 µM | 
22 | COc1ncc(NC(=O)Cc2cc(F)c(-c3cnc4[nH]c(Cl)cc4c3)cc2F)cc1C(F)(F)F [Compound P-0045, 2-[4-(2-chloro-1H-pyrrolo[2,3-b]pyridin-5-yl)-2,5-difluoro-phenyl]-N-[6-methoxy-5-(trifluoromethyl)-3-pyridyl]acetamide] | 0.0001 to 10 µM | 
23 | O=C(Cc1ccc(-c2cnc3[nH]cc(F)c3c2)cc1F)Nc1ccnc(C(F)(F)F)c1 [Compound P-0029, 2-[2-fluoro-4-(3-fluoro-1H-pyrrolo[2,3-b]pyridin-5-yl)phenyl]-N-[2-(trifluoromethyl)-4-pyridyl]acetamide] | 0.0001 to 10 µM | 
24 | COc1ncc(NC(=O)Cc2ccc(-c3cnc4[nH]c(Cl)cc4c3)c(F)c2)cc1C(F)(F)F [Compound P-0046, 2-[4-(2-chloro-1H-pyrrolo[2,3-b]pyridin-5-yl)-3-fluoro-phenyl]-N-[6-methoxy-5-(trifluoromethyl)-3-pyridyl]acetamide] | 0.0001 to 10 µM | 

Source: US10160747B2, “Compounds and methods for kinase modulation, and indications therefor” (Plexxikon Inc., priority 2016, dated 2018)
